The record followed here is ChEMBL document CHEMBL3638722, “Inhibitors of cytochrome P450” (2015).

SMILES strings stand for the structures. “And” between values parts separate entries of the source, which are not always exact repeats. Identical values can stand only once.

In the series the target is Cytochrome P450 3A4 (Homo sapiens, UniProt P08684). The series can be described thus: For testosterone hydroxylase activity the final microsomal protein concentration was 0.5 mg/mL, the substrate concentration was 50 uM and the LC-MS internal standard was D7-labeled 6beta -hydroxytestosterone.
Cytochrome P450 3A4, sequence (P08684 whole entry): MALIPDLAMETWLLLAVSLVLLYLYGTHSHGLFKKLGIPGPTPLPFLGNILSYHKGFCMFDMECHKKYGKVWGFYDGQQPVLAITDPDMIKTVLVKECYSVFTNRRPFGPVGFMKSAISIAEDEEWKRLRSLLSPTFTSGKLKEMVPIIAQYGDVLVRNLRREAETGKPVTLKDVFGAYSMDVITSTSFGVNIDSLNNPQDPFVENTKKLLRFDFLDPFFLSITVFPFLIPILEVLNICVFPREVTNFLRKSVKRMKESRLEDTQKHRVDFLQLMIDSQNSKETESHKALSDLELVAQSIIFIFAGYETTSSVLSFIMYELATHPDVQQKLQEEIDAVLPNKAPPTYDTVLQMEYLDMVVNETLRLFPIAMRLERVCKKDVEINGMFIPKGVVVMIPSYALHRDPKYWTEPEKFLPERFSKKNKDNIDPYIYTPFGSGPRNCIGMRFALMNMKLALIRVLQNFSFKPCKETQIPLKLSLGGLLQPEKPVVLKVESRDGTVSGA

A word on the IC50: it is the concentration that inhibits the measured activity by half. In the case of `CC(C)c1nc(CN(C)C(=O)NC2(C(=O)N[C@H](CC[C@H](Cc3ccccc3)NC(=O)OCc3cncs3)Cc3ccccc3)CCNCC2)cs1`, the concentration for half-maximal inhibition (IC50) is 0.15 µM and 0.34 µM.
